Results taken from patent publication US5656654A, “Arylidene and heteroarylidene oxindole derivatives and process for their preparation” (Farmitalia Carlo Erba S.r.l., priority 1993, dated 1997).

Tests used:
p45 v-abl kinase = biological target: T1, p45 v-abl kinase (Abelson murine leukemia virus, UniProt P00521); assay: p45 v-abl Kinase Assay ((Val^5)-Angiotensin II phosphorylation, in vitro); format: biochemical
T1 construct: by cited methods bacterially expressed (E. coli)
Description: p45 v-abl kinase purification. The enzyme used in our test was the p45 v-abl tyrosine kinase which represents the catalytic domain of the Abelson tyrosine kinase (isolated from the Abelson murine leukemia virus). The p45 v-abl kinase was produced and isolated as described by Wang et al. in J. Biol. Chem. 260, 64 (1985) and by Ferguson et al. in J. Biol. Chem. 260, 3652 (1985) and in Biochem. J. 257, 321 (1989).
p45 v-abl Kinase Assay. (Val^5)-Angiotensin II phosphorylation was performed by incubation with 40 ng of purified abl-kinase and (γ-^32 P)-ATP, in 50 μl of buffer containing Tris-HCl 25 mM, pH 8.0, MgCl2 10 mM and dithiothreitol 0.1 mM (kinase buffer). The reaction mixture was incubated for the indicated time at 30° C. and the reaction stopped by adding 50 μl of 5% trichloroacetic acid. After a brief incubation on ice, tubes were centrifuged. The supernatants were spotted on phosphocellulose paper squares (Whatman P-81) and washed extensively in acetic acid. The radioactivity bound to dried phosphocellulose squares was measured in a liquid scintillation counter. IC50 values were calculated from triplicate determinations of each experimental point. Each inhibitor was tested at concentrations ranging from […] in the presence of fixed concentrations of peptide (2 mM) and ATP (50 μM).
(§1) The inhibitory activity data for a representative group of compounds according to the present invention, obtained both in the in vitro p45 v-abl kinase assay and in the in vivo human chronic myeloid leukemia K 562 cell growth inhibition assay described above, are set out in following Table 1.

[1] = tested on: K562 cells (human chronic myeloid leukemia); assay: K562 cell growth inhibition assay ([^3-H]-Thymidine, headed In Vivo ASSAY); format: cell-based; conditions: K562 cells in suspension, 66 h, with or without 10% foetal calf serum
Description: K562 cell growth inhibition assay. 1 ml of K562 cells, grown in suspension, were incubated for 66 h with or without 10% foetal calf serum in the presence of 1 μCi of [^3 -H]-Thymidine. Cells were harvested, washed three times in cold PBS and treated with 5% trichloroacetic acid for 5 min on ice. After a wash in ethanol: ether 2:1, the DNA was extracted by 0.5N NaOH for 2 h at room temperature. The extract was counted in a liquid scintillation counter.
as §1

T1 sequence (P00521 whole entry): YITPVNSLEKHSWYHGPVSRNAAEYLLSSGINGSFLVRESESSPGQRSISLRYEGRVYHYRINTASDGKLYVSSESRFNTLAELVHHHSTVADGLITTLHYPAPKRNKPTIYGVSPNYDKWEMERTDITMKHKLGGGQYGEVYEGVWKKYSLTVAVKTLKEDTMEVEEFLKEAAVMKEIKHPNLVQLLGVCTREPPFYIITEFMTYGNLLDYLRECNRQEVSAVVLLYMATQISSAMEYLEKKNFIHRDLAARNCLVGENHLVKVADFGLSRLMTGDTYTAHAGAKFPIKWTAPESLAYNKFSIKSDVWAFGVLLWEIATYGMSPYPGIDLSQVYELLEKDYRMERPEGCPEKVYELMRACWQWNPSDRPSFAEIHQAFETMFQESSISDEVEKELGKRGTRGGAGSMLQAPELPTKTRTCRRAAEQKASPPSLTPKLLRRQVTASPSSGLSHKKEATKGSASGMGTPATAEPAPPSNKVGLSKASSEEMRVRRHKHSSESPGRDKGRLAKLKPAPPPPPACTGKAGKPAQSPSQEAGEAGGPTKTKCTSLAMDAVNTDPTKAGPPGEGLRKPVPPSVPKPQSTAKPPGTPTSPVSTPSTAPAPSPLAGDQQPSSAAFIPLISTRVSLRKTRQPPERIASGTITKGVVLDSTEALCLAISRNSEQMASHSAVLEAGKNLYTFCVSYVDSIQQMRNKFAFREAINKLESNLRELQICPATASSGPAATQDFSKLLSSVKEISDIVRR

Compound | IC50 (p45 v-abl kinase) | IC50 [1]
COc1ccc2[nH]cc(C=C3C(=O)Nc4ccc(N)cc43)c2c1 [FCE 28436, 5-amino-3-[(5'-methoxy-3'-indolyl)methylene]-2-oxindole] | 0.305 µM | 14.5 µM
Nc1ccc2c(c1)C(=Cc1ccc(O)c3ncccc13)C(=O)N2 [FCE 27518, 5-amino-3-[(8'-hydroxy-5'-quinolyl)methylene]-2-oxindole] | 6.9 µM | 1.2 µM
Nc1ccc2c(c1)C(=Cc1cc(O)c3c(c1O)CCCC3)C(=O)N2 [FCE 28360, 5-amino-3-[(1',4'-dihydroxy-2'-tetralyl)methylene]-2-oxindole] | 4.7 µM | 6.25 µM
COc1ccc2[nH]cc(C=C3C(=O)Nc4ccccc43)c2c1 [FCE 27564, 3-[(5'-methoxy-3'-indolyl)methylene]-2-oxindole] | 0.8 µM | 4.15 µM
Cc1[nH]c2ccccc2c1C=C1C(=O)Nc2ccccc21 [FCE 27566, 3-[(2'-methyl-3'-indolyl)methylene]-2-oxindole] | 15.6 µM | 2.2 µM
O=C1Nc2ccc(O)cc2C1=Cc1ccc(O)c2c1CCCC2 [FCE 28337, 5-hydroxy-3-[(4'-hydroxy-1'-tetralyl)methylene]-2-oxindole] | 2.32 µM | 11.5 µM
O=C1Nc2ccccc2C1=Cc1c[nH]c2ccc(O)cc12 [FCE 27866, 3-[(5'-hydroxy-3'-indolyl)methylene]-2-oxindole] | 5.2 µM | 8.75 µM
COc1ccc2[nH]cc(C=C3C(=O)Nc4ccc(O)cc43)c2c1 [FCE 28359, 5-hydroxy-3-[(5'-methoxy-3'-indolyl)methylene]-2-oxindole] | 0.39 µM | 8.15 µM
N#Cc1ccc2[nH]cc(C=C3C(=O)Nc4ccccc43)c2c1 [FCE 27565, 3-[(5'-cyano-3'-indolyl)methylene]-2-oxindole] | 2.4 µM | 
O=C1Nc2ccc(Br)cc2C1=Cc1ccc(O)c2ncccc12 [FCE 27996, 5-bromo-3-[(8'-hydroxy-5'-quinolyl)methylene]-2-oxindole] | 2.6 µM | 0.62 µM
